Results: patent US9440963B2, “Compositions, formulations and methods for treating ocular diseases” (Aerpio Therapeutics Inc., priority 2013, dated 2016)
Values after ≈ are worked out from the molar mass of the structure shown. Read-outs that look alike come from different tables or passages of the source. One block for each compound: values may come before it.

Assays:
[1] = Room temperature aqueous solubility with solubilizing agents (Example 36); type: physicochemical
Source text: The room temperature aqueous solubility (mg/mL) of the a compound (4-{(S)-2-[(S)-2-methoxycarbonylamino)-3-phenylpropanamido]-2-[2-(thiophen-2-yl)thiazol-4-yl]ethyl}phenylsulfamic acid) in water, HPβCD, Poloxamer 407, and sulfobutylether-β-cyclodextrin, is provided in TABLE XXVII. Solubility in saline for the test compound is reduced presumably due to the common ion effect.
The solubility (mg/mL) of the test compound in mixtures of HPβCD and PEG400 is illustrated in TABLE XXVIII.

[2] = human, in vivo
Protocol: FIG. 9 depicts the mean plasma concentration over time after a single dose of a 5 mg, a 15 mg, a 22.5 mg, or a 30 mg of a test compound on day 14, respectively, in a multiple ascending dose study in patients with diabetic macular edema.
A phase 1B/2A open-label, Multiple-ascending dose cohort study to assess the pharmacokinetics and pharmacodynamics effect of 28-day repeat subcutaneous dose of 4-{(S)-2-[(S)-2-(methoxycarbonylamino)-3-phenylpropanamido]-2-[2-(thiophen-2-yl)thiazol-4-yl]ethyl}phenylsulfamic acid (drug) in subjects with diffuse diabetic macular edema (DME).
The aim of this study was to evaluate tolerability, safety, efficacy and pharmacokinetics and pharmacodynamics in patients with DME involving the center of the fovea with central subfield mean thickness ≧325 μm measured by spectral domain-optical coherence tomography (SD-OCT).
Twenty-four patients were administered ascending doses of test compound twice daily (BID) for 28 days in 4 separate cohorts at 5, 15, 22.5 or 30 mg BID, respectively.
Drug was supplied as a lyophilized powder in a vial for reconstitution. Each vial contained 100 mg drug and 250 mg HPβCD. Vials were reconstituted with sterile 5% dextrose for cohort 1 (5 mg BID) and with sterile diluent containing 5% HPβCD/1% dextrose for cohorts 2, 3, and 4 (15 mg, 22.5 mg and 30 mg BID).
For cohorts 1 (5 mg BID) and 2 (15 mg BID) the volume administered for each dose was 0.5 ml (10 and 30 mg/ml, respectively) and for cohorts 3 and 4 the volume was 0.75 ml (30 and 40 mg/ml, respectively).
Blood samples for pharmacokinetic profiling were taken pre-dose (0), 15 minutes, 1 hour, 2 hours, 3 hours and 4 hours after administration of the first dose on day 14.
Plasma drug concentration was determined with a validated LC/MS-MS method. The pharmacokinetic (PK) parameters were determined using a standard non-compartmental method, and Cmax, AUClast (with last being from time 0 to the last quantifiable point), AUCinf, were analyzed statistically using log-transformed data.

[3] = Chemical and physical stability of aqueous solution formulations (Table XXIX); type: physicochemical; conditions: for Concentration of test compound in aqueous solution formulation shown to be chemically and physically stable: chemically stable 1 month at 50 °C, physically stable at 5 °C, ambient, 50 °C
Protocol: TABLE XXIX contains aqueous solution formulations of the test compound above with the denoted solvents that have been prepared and shown to be chemically stable through 1 month at 50° C., and physically stable at 5° C., at ambient temperature, and at 50° C. […] The target pH range for the formulations is pH 7+/−0.5 pH units.

solubility with either HPβCD or PEG400 individually [1]: increase in solubility
Solubility ([1]; 0% HPβCD, 15% PEG400): 30 mg/mL (≈ 51.1 mM)
Solubility ([1]; 0% HPβCD, 30% PEG400): 68 mg/mL (≈ 116 mM)
Solubility ([1]; 15% HPβCD, 0% PEG400): 59 mg/mL (≈ 101 mM)
Solubility ([1]; 15% HPβCD, 5% PEG400): 57 mg/mL (≈ 97.2 mM)
Solubility ([1]; 15% HPβCD, 10% PEG400): 34 mg/mL (≈ 57.9 mM)
Solubility ([1]; 15% HPβCD, 15% PEG400): 6 mg/mL (≈ 10.2 mM)
Solubility ([1]; room temperature, aqueous, 0% HPβCD (water)): 27 mg/mL (≈ 46 mM)
Solubility ([1]; room temperature, aqueous, 10% HPβCD): 45 mg/mL (≈ 76.7 mM)
Solubility ([1]; room temperature, aqueous, 15% SBE-β-CD): 44 mg/mL (≈ 75 mM)
Solubility ([1]; room temperature, aqueous, 20% HPβCD): 57 mg/mL (≈ 97.2 mM)
Solubility ([1]; room temperature, aqueous, 20% Poloxamer 407): 44 mg/mL (≈ 75 mM)
Solubility ([1]; room temperature, aqueous, 30% HPβCD): 72 mg/mL (≈ 123 mM)
solubility on addition of PEG400 to a mixture with HPβCD ([1]; solubility inversely proportional to the amount of PEG400): erosion of solubility
overall exposures versus dose [2]: approximately dose proportional
AUCinf Geometric Mean ([2]; 5 mg): 102.92 ng·h/mL
AUCinf Mean ([2]; 5 mg): 106.46 ng·h/mL
AUCinf Median ([2]; 5 mg): 100.55 ng·h/mL
AUCinf Min-Max ([2]; 5 mg): 70.1 to 155.1 ng·h/mL
AUClast Geometric Mean ([2]; 5 mg): 98.63 ng·h/mL
AUClast Mean ([2]; 5 mg): 101.56 ng·h/mL
AUClast Median ([2]; 5 mg): 97.03 ng·h/mL
AUClast Min-Max ([2]; 5 mg): 67.9 to 142.6 ng·h/mL
Cmax Geometric Mean ([2]; 5 mg): 0.07448 µg/mL
Cmax Mean ([2]; 5 mg): 0.07775 µg/mL
Cmax Median ([2]; 5 mg): 0.07344 µg/mL
Cmax Min-Max ([2]; 5 mg): 0.0447 to 0.1081 µg/mL
t1/2 Mean (SD) ([2]; 5 mg): 0.85 (0.186) hr
t1/2 Median ([2]; 5 mg): 49.8 min
t1/2 Min-Max ([2]; 5 mg): 36 to 66 min
tmax Mean (SD) ([2]; 5 mg): 0.31 (0.134) hr
tmax Median ([2]; 5 mg): 15.6 min
tmax Min-Max ([2]; 5 mg): 18 to 36 min
AUCinf Geometric Mean ([2]; 15 mg): 245.89 ng·h/mL
AUCinf Mean ([2]; 15 mg): 255.08 ng·h/mL
AUCinf Median ([2]; 15 mg): 232.89 ng·h/mL
AUCinf Min-Max ([2]; 15 mg): 176.8 to 387.4 ng·h/mL
AUClast Geometric Mean ([2]; 15 mg): 230.97 ng·h/mL
AUClast Mean ([2]; 15 mg): 239.08 ng·h/mL
AUClast Median ([2]; 15 mg): 213.32 ng·h/mL
AUClast Min-Max ([2]; 15 mg): 170.4 to 353.3 ng·h/mL
Cmax Geometric Mean ([2]; 15 mg): 0.14986 µg/mL
Cmax Mean ([2]; 15 mg): 0.15657 µg/mL
Cmax Median ([2]; 15 mg): 0.13805 µg/mL
Cmax Min-Max ([2]; 15 mg): 0.1025 to 0.2263 µg/mL
t1/2 Mean (SD) ([2]; 15 mg): 0.96 (0.282) hr
t1/2 Median ([2]; 15 mg): 53.4 min
t1/2 Min-Max ([2]; 15 mg): 36 to 84 min
tmax Mean (SD) ([2]; 15 mg): 0.27 (0.039) hr
tmax Median ([2]; 15 mg): 15 min
tmax Min-Max ([2]; 15 mg): 12 to 18 min
AUCinf Geometric Mean ([2]; 22.5 mg): 454.63 ng·h/mL
AUCinf Mean ([2]; 22.5 mg): 498.12 ng·h/mL
AUCinf Median ([2]; 22.5 mg): 358.19 ng·h/mL
AUCinf Min-Max ([2]; 22.5 mg): 322.4 to 813.8 ng·h/mL
AUClast Geometric Mean ([2]; 22.5 mg): 400.80 ng·h/mL
AUClast Mean ([2]; 22.5 mg): 437.51 ng·h/mL
AUClast Median ([2]; 22.5 mg): 328.84 ng·h/mL
AUClast Min-Max ([2]; 22.5 mg): 302.7 to 789.6 ng·h/mL
Cmax Geometric Mean ([2]; 22.5 mg): 0.21572 µg/mL
Cmax Mean ([2]; 22.5 mg): 0.2374 µg/mL
Cmax Median ([2]; 22.5 mg): 0.2032 µg/mL
Cmax Min-Max ([2]; 22.5 mg): 0.1427 to 0.4005 µg/mL
t1/2 Mean (SD) ([2]; 22.5 mg): 0.84 (0.093) hr
t1/2 Median ([2]; 22.5 mg): 52.2 min
t1/2 Min-Max ([2]; 22.5 mg): 42 to 54 min
tmax Mean (SD) ([2]; 22.5 mg): 0.45 (0.370) hr
tmax Median ([2]; 22.5 mg): 16.2 min
tmax Min-Max ([2]; 22.5 mg): 18 to 60 min
AUCinf Geometric Mean ([2]; 30 mg): 824.87 ng·h/mL
AUCinf Mean ([2]; 30 mg): 828.62 ng·h/mL
AUCinf Median ([2]; 30 mg): 834.70 ng·h/mL
AUCinf Min-Max ([2]; 30 mg): 729.7 to 921.4 ng·h/mL
AUClast Geometric Mean ([2]; 30 mg): 657.33 ng·h/mL
AUClast Mean ([2]; 30 mg): 669.37 ng·h/mL
AUClast Median ([2]; 30 mg): 700.90 ng·h/mL
AUClast Min-Max ([2]; 30 mg): 444.1 to 796.1 ng·h/mL
Cmax Geometric Mean ([2]; 30 mg): 0.31424 µg/mL
Cmax Mean ([2]; 30 mg): 0.32048 µg/mL
Cmax Median ([2]; 30 mg): 0.32085 µg/mL
Cmax Min-Max ([2]; 30 mg): 0.2209 to 0.4261 µg/mL
t1/2 Mean (SD) ([2]; 30 mg): 1.07 (0.338) hr
t1/2 Median ([2]; 30 mg): 55.8 min
t1/2 Min-Max ([2]; 30 mg): 48 to 90 min
tmax Mean (SD) ([2]; 30 mg): 0.63 (0.391) hr
tmax Median ([2]; 30 mg): 38.4 min
tmax Min-Max ([2]; 30 mg): 12 to 60 min
Tmax ([2]; sc, 30 mg): 12 to 60 min
elimination half-life ([2]; sc, 30 mg): 36 to 90 min
Concentration of test compound in aqueous solution formulation shown to be stable ([3]; 4.5% mannitol, one week at room temperature and one week at 50 °C): 5 mg/mL^b
Concentration of test compound in aqueous solution formulation shown to be chemically and physically stable ([3]; 10% HPβCD): 15000 µg/mL
Concentration of test compound in aqueous solution formulation evaluated for stability ([3]; 15% HPβCD/0.25% saline, evaluated for short-term physical stability at 5 °C and ambient temperature): 40 mg/mL^a
Concentration of test compound in aqueous solution formulation shown to be chemically and physically stable ([3]; 25% HPβCD): 50000 µg/mL
Concentration of test compound in aqueous solution formulation shown to be chemically and physically stable ([3]; 30% HPβCD): 50000 µg/mL
SMILES: COC(=O)N[C@@H](Cc1ccccc1)C(=O)N[C@@H](Cc1ccc(NS(=O)(=O)O)cc1)c1csc(-c2cccs2)n1 [test compound]
Physical and chemical stability of formulation ([3]; 4.5% mannitol, 5 mg/mL test compound, one week at room temperature and one week at 50 °C): ^bPhysically and chemically stable through one week at room temperature and one week at 50 °C

Solubility [1]: 89 mg/mL (≈ 167 mM)
Solubility ([1]; aqueous with cosolvent or surfactant or cyclodextrin, Solubility): 60 mg/mL (≈ 113 mM)
Solubility ([1]; water, Solubility): 45 mg/mL (≈ 84.5 mM)
SMILES: CCc1csc([C@H](Cc2ccc(NS(=O)(=O)O)cc2)NC(=O)[C@H](Cc2ccccc2)NC(=O)OC)n1
